Results as given in EP3154958B1, “PHOSPHATIDYLINOSITOL 3-KINASE INHIBITORS” (Gilead Sciences, Inc., priority 2014, dated 2015).
pIC50: −log10 of the molar value. Read-outs that look alike come from different tables or passages of the source.

Assays:
Assay type in all cases: biochemical
PI3Kγ = target: T1, PI3Kγ (Homo sapiens, UniProt P48736); test: TR-FRET enzymatic activity assay, PI3Kγ
T1 construct: made in house
Protocol: (§1) The compounds of formula (I) were characterized for their enzymatic activity against the PI3K isoforms. The activities were measured using a time-resolved fluorescence resonance energy transfer (TR-FRET) assay.

PI3Kβ = target: T2, PI3Kβ (Homo sapiens, UniProt P42338); test: TR-FRET enzymatic activity assay, PI3Kβ
T2 construct: made in house
T2 sequence (P42338 whole entry): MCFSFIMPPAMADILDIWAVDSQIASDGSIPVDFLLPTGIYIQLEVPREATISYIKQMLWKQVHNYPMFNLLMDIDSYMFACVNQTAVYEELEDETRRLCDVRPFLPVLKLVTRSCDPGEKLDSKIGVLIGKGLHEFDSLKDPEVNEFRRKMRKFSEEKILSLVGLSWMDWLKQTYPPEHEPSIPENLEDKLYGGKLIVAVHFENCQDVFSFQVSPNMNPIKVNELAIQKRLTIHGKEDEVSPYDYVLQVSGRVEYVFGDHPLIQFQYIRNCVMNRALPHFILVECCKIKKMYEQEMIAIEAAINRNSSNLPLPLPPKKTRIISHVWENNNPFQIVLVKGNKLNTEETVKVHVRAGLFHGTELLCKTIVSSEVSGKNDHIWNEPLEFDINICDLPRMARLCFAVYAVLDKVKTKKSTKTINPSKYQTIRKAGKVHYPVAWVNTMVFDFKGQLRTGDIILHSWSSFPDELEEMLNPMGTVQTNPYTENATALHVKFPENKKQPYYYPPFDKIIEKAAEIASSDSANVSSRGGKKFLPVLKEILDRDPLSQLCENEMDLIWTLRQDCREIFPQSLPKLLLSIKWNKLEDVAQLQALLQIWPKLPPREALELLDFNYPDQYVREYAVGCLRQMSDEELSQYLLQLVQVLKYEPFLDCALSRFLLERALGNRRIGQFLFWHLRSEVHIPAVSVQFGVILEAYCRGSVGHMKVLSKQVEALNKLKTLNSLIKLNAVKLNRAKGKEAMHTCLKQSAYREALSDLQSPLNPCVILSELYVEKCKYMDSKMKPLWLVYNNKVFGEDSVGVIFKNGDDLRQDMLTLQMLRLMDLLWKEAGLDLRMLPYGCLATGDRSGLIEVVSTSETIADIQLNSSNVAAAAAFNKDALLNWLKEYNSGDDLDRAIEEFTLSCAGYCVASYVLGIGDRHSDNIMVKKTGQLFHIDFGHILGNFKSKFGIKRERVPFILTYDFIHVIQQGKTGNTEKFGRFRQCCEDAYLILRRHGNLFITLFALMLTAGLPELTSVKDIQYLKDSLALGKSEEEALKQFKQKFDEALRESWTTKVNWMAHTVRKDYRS
T2 sequence (P27986 whole entry partner): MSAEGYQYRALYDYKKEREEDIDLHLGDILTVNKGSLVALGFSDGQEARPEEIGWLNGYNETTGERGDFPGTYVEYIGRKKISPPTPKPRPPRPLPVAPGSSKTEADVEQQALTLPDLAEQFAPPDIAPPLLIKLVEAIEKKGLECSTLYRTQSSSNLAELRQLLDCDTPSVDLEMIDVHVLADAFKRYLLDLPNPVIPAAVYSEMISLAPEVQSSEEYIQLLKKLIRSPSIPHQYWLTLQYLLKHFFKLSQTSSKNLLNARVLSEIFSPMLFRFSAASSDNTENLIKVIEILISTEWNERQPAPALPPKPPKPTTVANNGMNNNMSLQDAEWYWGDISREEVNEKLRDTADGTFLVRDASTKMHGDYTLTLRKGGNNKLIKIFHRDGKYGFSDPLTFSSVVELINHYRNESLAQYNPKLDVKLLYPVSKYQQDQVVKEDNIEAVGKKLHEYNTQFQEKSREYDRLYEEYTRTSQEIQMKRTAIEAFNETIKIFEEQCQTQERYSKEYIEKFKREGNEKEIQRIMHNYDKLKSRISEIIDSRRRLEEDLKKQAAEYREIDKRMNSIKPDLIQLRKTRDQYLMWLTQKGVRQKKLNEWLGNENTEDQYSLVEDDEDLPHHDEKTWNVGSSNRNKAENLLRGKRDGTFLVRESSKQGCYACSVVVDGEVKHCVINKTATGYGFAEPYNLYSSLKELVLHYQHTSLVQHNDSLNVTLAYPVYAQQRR
Protocol: as §1

PI3Kδ = target: T3, PI3Kδ (Homo sapiens, UniProt O00329); test: TR-FRET enzymatic activity assay, PI3Kδ
T3 construct: made in house
T3 sequence (O00329 whole entry): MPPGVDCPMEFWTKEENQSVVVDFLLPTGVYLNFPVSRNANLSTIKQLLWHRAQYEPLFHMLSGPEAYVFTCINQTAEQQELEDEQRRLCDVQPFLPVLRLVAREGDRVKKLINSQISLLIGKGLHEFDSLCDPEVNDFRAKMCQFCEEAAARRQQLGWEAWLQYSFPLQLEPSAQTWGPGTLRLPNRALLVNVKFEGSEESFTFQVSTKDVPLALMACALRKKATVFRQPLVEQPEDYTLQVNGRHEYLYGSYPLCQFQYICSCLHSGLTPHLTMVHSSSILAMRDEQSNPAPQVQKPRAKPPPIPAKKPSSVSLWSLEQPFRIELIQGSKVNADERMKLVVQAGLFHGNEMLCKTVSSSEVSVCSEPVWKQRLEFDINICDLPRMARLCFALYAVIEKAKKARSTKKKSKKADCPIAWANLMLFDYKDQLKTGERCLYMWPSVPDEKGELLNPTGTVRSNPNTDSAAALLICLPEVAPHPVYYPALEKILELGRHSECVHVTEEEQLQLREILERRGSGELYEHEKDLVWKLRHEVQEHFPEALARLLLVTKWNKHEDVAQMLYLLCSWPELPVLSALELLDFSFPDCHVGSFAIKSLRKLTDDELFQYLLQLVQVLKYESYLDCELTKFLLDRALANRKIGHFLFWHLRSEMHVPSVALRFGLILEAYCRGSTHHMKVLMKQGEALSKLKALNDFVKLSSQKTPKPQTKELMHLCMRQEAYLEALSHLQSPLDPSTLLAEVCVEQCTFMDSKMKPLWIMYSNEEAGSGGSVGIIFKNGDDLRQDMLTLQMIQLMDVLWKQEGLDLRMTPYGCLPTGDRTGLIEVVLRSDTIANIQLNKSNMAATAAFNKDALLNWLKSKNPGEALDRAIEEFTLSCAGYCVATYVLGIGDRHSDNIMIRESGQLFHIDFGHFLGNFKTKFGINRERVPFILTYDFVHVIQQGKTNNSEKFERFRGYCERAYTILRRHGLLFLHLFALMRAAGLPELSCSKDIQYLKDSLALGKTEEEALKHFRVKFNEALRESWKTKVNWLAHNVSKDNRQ
T3 sequence (P27986 whole entry partner): as the sequence (P27986 whole entry partner) above
Protocol: as §1

[1] = recombinant heterodimeric PI3Kγ 2 nM, 2× Km ATP, 30 minutes at 25°C
[2] = recombinant heterodimeric PI3Kβ 25-50 pM, 2× Km ATP, 30 minutes at 25°C
[3] = recombinant heterodimeric PI3Kδ 25-50 pM, 2× Km ATP, 30 minutes at 25°C

T1 sequence (P48736 whole entry): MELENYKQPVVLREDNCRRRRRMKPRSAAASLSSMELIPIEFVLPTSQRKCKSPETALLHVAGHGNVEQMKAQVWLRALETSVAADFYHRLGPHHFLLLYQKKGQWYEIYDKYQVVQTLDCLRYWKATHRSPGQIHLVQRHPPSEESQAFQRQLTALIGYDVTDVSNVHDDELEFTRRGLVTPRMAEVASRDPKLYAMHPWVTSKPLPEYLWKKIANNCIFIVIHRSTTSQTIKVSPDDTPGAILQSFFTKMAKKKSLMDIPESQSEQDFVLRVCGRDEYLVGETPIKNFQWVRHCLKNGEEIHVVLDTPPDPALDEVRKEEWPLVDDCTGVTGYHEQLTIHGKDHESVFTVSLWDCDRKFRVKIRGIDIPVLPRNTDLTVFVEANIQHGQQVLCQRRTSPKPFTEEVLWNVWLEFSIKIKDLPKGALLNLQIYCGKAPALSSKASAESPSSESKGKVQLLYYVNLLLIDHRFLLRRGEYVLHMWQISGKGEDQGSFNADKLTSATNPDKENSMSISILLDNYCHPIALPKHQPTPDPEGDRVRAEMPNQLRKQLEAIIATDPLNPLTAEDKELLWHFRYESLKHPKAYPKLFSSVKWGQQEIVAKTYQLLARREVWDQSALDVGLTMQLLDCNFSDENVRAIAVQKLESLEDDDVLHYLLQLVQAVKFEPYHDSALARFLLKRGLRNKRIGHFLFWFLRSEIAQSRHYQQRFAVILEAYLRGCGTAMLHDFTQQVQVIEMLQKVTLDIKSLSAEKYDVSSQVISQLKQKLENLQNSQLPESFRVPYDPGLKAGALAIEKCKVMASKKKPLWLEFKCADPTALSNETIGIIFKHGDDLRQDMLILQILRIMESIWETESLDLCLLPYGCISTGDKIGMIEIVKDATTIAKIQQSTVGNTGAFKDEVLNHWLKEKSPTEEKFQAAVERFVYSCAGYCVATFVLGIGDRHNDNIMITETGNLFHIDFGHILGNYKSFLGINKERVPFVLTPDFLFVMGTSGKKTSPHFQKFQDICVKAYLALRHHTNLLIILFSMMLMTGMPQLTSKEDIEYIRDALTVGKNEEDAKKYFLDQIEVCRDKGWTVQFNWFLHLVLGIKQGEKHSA
T1 sequence (Q8WYR1 whole entry partner): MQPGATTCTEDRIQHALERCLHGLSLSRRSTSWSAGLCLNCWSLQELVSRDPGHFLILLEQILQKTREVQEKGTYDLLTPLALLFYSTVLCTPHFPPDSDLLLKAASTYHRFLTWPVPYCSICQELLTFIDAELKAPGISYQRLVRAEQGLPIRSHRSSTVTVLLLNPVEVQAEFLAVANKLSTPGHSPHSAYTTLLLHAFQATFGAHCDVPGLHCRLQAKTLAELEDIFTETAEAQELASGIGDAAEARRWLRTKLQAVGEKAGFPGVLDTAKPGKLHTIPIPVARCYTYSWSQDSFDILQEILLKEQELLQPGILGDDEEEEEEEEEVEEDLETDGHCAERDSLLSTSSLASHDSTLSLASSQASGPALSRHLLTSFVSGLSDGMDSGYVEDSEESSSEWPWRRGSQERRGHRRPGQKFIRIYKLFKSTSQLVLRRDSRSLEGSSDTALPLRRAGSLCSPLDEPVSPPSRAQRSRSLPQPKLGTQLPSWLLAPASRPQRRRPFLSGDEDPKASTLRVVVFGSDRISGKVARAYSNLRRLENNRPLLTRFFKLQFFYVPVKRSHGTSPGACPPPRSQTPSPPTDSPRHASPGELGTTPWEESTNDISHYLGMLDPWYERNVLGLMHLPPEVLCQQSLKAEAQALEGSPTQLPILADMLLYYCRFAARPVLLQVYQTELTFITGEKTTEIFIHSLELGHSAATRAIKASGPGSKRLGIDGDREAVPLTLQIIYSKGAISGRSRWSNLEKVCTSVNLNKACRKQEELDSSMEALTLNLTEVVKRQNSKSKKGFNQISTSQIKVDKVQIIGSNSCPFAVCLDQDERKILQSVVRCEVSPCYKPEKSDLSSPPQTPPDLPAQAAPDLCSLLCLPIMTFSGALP

pIC50 (PI3Kγ; [1])	pIC50 (PI3Kβ; [2])	pIC50 (PI3Kδ; [3])	pIC50 (PI3Kγ)	pIC50 (PI3Kβ)	pIC50 (PI3Kδ)	Structure (SMILES)
< 5.00	5.92	7.85				C[C@H](Nc1ncnc2[nH]cnc12)c1nc2cccc(Cl)c2c(=O)n1C1CCN(C)CC1 [Compound 120, (S)-2-(1-((9H-purin-6-yl)amino)ethyl)-5-chloro-3-(1-methylpiperidin-4-yl)quinazolin-4(3H)-one]
			6.19	8.70	9.22	N#Cc1c(N)nc(N)nc1N[C@H](c1nc2cccc(Cl)c2c(=O)n1C1[C@H]2CNC[C@@H]12)C1CC1 (stereo in doubt) [Compound 15, 4-(((1S)-(3-((1R,5S)-3-azabicyclo[3.1.0]hexan-6-yl)-5-chloro-4-oxo-3,4-dihydroquinazolin-2-yl)(cyclopropyl)methyl)amino)-2,6-diaminopyrimidine-5-carbonitrile]
5.59	8.70	8.22				Cc1nc(N)nc(N[C@@H](C)c2nc3c(F)ccc(Cl)c3c(=O)n2C2[C@H]3CNC[C@@H]23)c1C#N (stereo in doubt) [Compound 16, 4-(((1S)-1-(3-((1R,5S)-3-azabicyclo[3.1.0]hexan-6-yl)-5-chloro-8-fluoro-4-oxo-3,4-dihydroquinazolin-2-yl)ethyl)amino)-2-amino-6-methylpyrimidine-5-carbonitrile]
< 5.00	7.11	7.72				C[C@H](Nc1nc(N)nc(N)c1C#N)c1nc2cccc(Cl)c2c(=O)n1[C@@H]1CCNC1 [Compound 31, 2,4-diamino-6-(((S)-1-(5-chloro-4-oxo-3-((R)-pyrrolidin-3-yl)-3,4-dihydroquinazolin-2-yl)ethyl)amino)pyrimidine-5-carbonitrile]
< 5.00	5.35	7.30				CC[C@H](Nc1nc(N)nc(C)c1C#N)c1nc2cccc(Cl)c2c(=O)n1N1CCN(Cc2ccc(C(F)(F)F)cc2)CC1 [Compound 89, (S)-2-amino-4-((1-(5-chloro-4-oxo-3-(4-(4-(trifluoromethyl)benzyl)piperazin-1-yl)-3,4-dihydroquinazolin-2-yl)propyl)amino)-6-methylpyrimidine-5-carbonitrile]
< 5.00	7.24	8.70				N#Cc1c(N)ncnc1N[C@H](c1nc2cccc(Cl)c2c(=O)n1N1CCNCC1)C1CC1 [Compound 102, (S)-4-amino-6-(((5-chloro-4-oxo-3-(piperazin-1-yl)-3,4-dihydroquinazolin-2-yl)(cyclopropyl)methyl)amino)pyrimidine-5-carbonitrile]
6.24	8.10	7.92				C[C@H](Nc1nc(N)nc(N)c1C#N)c1nc2cccc(Cl)c2c(=O)n1N1CCN(Cc2ccccc2)CC1 [Compound 3, (S)-2,4-diamino-6-((1-(3-(4-benzylpiperazin-1-yl)-5-chloro-4-oxo-3,4-dihydroquinazolin-2-yl)ethyl)amino)pyrimidine-5-carbonitrile]
5.66	5.74	7.72				Nc1nc(N)c(Cl)c(N[C@H](c2nc3cccc(Cl)c3c(=O)n2N2CCOCC2)C2CC2)n1 [Compound 122, (S)-5-chloro-2-(cyclopropyl((2,6-diamino-5-chloropyrimidin-4-yl)amino)methyl)-3-morpholinoquinazolin-4(3H)-one]
< 5.00	8.30	8.70				C[C@H](Nc1ncnc(N)c1C#N)c1nc2cccc(Cl)c2c(=O)n1N1CCNC2(CC2)C1 [Compound 63, (S)-4-amino-6-((1-(5-chloro-4-oxo-3-(4,7-diazaspiro[2.5]octan-7-yl)-3,4-dihydroquinazolin-2-yl)ethyl)amino)pyrimidine-5-carbonitrile]
			6.32	9.40	9.52	Cc1nc(N)nc(N[C@H](c2nc3cccc(Cl)c3c(=O)n2C2[C@H]3CNC[C@@H]23)C2CC2)c1C#N (stereo in doubt) [Compound 14, 4-(((1S)-(3-((1R,5S)-3-azabicyclo[3.1.0]hexan-6-yl)-5-chloro-4-oxo-3,4-dihydroquinazolin-2-yl)(cyclopropyl)methyl)amino)-2-amino-6-methylpyrimidine-5-carbonitrile]
5.76	7.52	7.68				CN1CCN(n2c([C@@H](Nc3nc(N)nc(N)c3C#N)C3CC3)nc3cccc(Cl)c3c2=O)CC1 [Compound 1, (S)-2,4-diamino-6-(((5-chloro-3-(4-methylpiperazin-1-yl)-4-oxo-3,4-dihydroquinazolin-2-yl)(cyclopropyl)methyl)amino)pyrimidine-5-carbonitrile]
5.89	7.32	7.74				N#Cc1c(N)nc(N)nc1N[C@H](c1nc2cccc(Cl)c2c(=O)n1N1CCN(Cc2ccccc2)CC1)C1CC1 [Compound 93, (S)-2,4-diamino-6-(((3-(4-benzylpiperazin-1-yl)-5-chloro-4-oxo-3,4-dihydroquinazolin-2-yl)(cyclopropyl)methyl)amino)pyrimidine-5-carbonitrile]
< 5.00	6.32	7.66				C[C@H](Nc1ncnn2ccnc12)c1nc2cccc(Cl)c2c(=O)n1C1CCCNCC1 (stereo partly drawn) [Compound 82, 3-(azepan-4-yl)-5-chloro-2-((S)-1-(imidazo[2,1-f][1,2,4]triazin-4-ylamino)ethyl)quinazolin-4(3H)-one]
5.28	5.74	7.43				C[C@H](Nc1ncnc2scnc12)c1nc2cccc(Cl)c2c(=O)n1N1CCN(CC(F)F)CC1 [Compound 115, (S)-5-chloro-3-(4-(2,2-difluoroethyl)piperazin-1-yl)-2-(1-(thiazolo[5,4-d]pyrimidin-7-ylamino)ethyl)quinazolin-4(3H)-one]
< 5.00	7.08	8.00				C[C@H](Nc1ncnc2ccoc12)c1nc2cccc(Cl)c2c(=O)n1N1CCNCC1 [Compound 34, (S)-5-chloro-2-(1-(furo[3,2-d]pyrimidin-4-ylamino)ethyl)-3-(piperazin-1-yl)quinazolin-4(3H)-one]
< 5.00	7.11	8.15				CC[C@H](Nc1ncnc(N)c1C#N)c1nc2cccc(Cl)c2c(=O)n1N1CCNCC1 [Compound 79, (S)-4-amino-6-((1-(5-chloro-4-oxo-3-(piperazin-1-yl)-3,4-dihydroquinazolin-2-yl)propyl)amino)pyrimidine-5-carbonitrile]
< 5.00	6.24	6.66				C[C@H](Nc1nc(N)nc(N)c1Cl)c1nc2c(F)ccc(Cl)c2c(=O)n1N1CCN(Cc2ccccc2)CC1 [Compound 117, (S)-3-(4-benzylpiperazin-1-yl)-5-chloro-2-(1-((2,6-diamino-5-chloropyrimidin-4-yl)amino)ethyl)-8-fluoroquinazolin-4(3H)-one]
< 5.00	7.82	8.70				C[C@H](Nc1ncnc2scnc12)c1nc2c(F)ccc(Cl)c2c(=O)n1N1CCNCC1 [Compound 50, (S)-5-chloro-8-fluoro-3-(piperazin-1-yl)-2-(1-(thiazolo[5,4-d]pyrimidin-7-ylamino)ethyl)quinazolin-4(3H)-one]
< 5.00	6.70	7.59				C[C@H](Nc1ncnn2ccnc12)c1nc2c(F)ccc(F)c2c(=O)n1N1CCNCC1 [Compound 40, (S)-5,8-difluoro-2-(1-(imidazo[2,1-f][1,2,4]triazin-4-ylamino)ethyl)-3-(piperazin-1-yl)quinazolin-4(3H)-one]
6.15						C[C@H](Nc1nc(N)nc(N)c1C#N)c1nc2cccc(Cl)c2c(=O)n1N1CCNCC1 [Compound 57, (S)-2,4-diamino-6-((1-(5-chloro-4-oxo-3-(piperazin-1-yl)-3,4-dihydroquinazolin-2-yl)ethyl)amino)pyrimidine-5-carbonitrile]
5.80	6.14	7.85				C[C@H](Nc1nc(N)nc(N)c1C#N)c1nc2cccc(Cl)c2c(=O)n1C1CCN(CC(F)F)CC1 [Compound 99, (S)-2,4-diamino-6-((1-(5-chloro-3-(1-(2,2-difluoroethyl)piperidin-4-yl)-4-oxo-3,4-dihydroquinazolin-2-yl)ethyl)amino)pyrimidine-5-carbonitrile]
< 5.00						Cc1nc(N)nc(N[C@@H](C)c2nc3cccc(Cl)c3c(=O)n2[C@@H]2CCCNCC2)c1C#N [Compound 11, 2-amino-4-(((S)-1-(3-((R)-azepan-4-yl)-5-chloro-4-oxo-3,4-dihydroquinazolin-2-yl)ethyl)amino)-6-methylpyrimidine-5-carbonitrile]
	7.68	6.64				C[C@H](NC(=O)c1nccnc1N)c1nc2cccc(Cl)c2c(=O)n1N1CCNCC1 [Compound 56, (S)-3-amino-N-(1-(5-chloro-4-oxo-3-(piperazin-1-yl)-3,4-dihydroquinazolin-2-yl)ethyl)pyrazine-2-carboxamide]
	8.40	8.52		7.57	8.22	C[C@H](Nc1nc(N)nc(N)c1C#N)c1nc2c(Cl)ccc(Cl)c2c(=O)n1N1CCNCC1 [Compound 53, (S)-2,4-diamino-6-((1-(5,8-dichloro-4-oxo-3-(piperazin-1-yl)-3,4-dihydroquinazolin-2-yl)ethyl)amino)pyrimidine-5-carbonitrile]
< 5.00						Cc1nc(N)nc(N[C@@H](C)c2nc3cccc(Cl)c3c(=O)n2[C@H]2CCCNCC2)c1C#N [Compound 10, 2-amino-4-(((S)-1-(3-((S)-azepan-4-yl)-5-chloro-4-oxo-3,4-dihydroquinazolin-2-yl)ethyl)amino)-6-methylpyrimidine-5-carbonitrile]
